The test system of the test is BDF1 mice, P388 leukemia ip, median survival T/C. In words: NCI In Vivo Anticancer Drug Screen. Data for tumor model P388 Leukemia (intraperitoneal) in B6D2F1 (BDF1) mice. To be noted: endpoint: median survival time, higher = longer survival. Put shortly: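 Vehicle-dosed animals serve as the reference; survival of compound-dosed, tumour-implanted mice is divided by it.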

Setting [1] is: dose: 50.0 mg/kg/injection, schedule: Q01DX009 (ip), vehicle: Klucel (hydroxypropylcellulose) (HPC).
Setting [2] is: dose: 50.0 mg/kg/injection, schedule: Q04DX003 (ip), vehicle: Klucel (hydroxypropylcellulose) (HPC).
Setting [3] is: dose: 100.0 mg/kg/injection, schedule: Q01DX009 (ip), vehicle: Klucel (hydroxypropylcellulose) (HPC).
Setting [4] is: dose: 100.0 mg/kg/injection, schedule: Q04DX003 (ip), vehicle: Klucel (hydroxypropylcellulose) (HPC).
[5] abbreviates: dose: 200.0 mg/kg/injection, schedule: Q01DX009 (ip), vehicle: Klucel (hydroxypropylcellulose) (HPC).
[6] abbreviates: dose: 200.0 mg/kg/injection, schedule: Q04DX003 (ip), vehicle: Klucel (hydroxypropylcellulose) (HPC).
Setting [7] is: dose: 25.0 mg/kg/injection, schedule: Q01DX009 (ip), vehicle: Klucel (hydroxypropylcellulose) (HPC).
Setting [8] is: dose: 400.0 mg/kg/injection, schedule: Q01DX009 (ip), vehicle: Klucel (hydroxypropylcellulose) (HPC).
Where [9] appears, read: dose: 50.0 mg/kg/injection, schedule: Q04DX003 (ip), vehicle: water.
Setting [10] is: dose: 100.0 mg/kg/injection, schedule: Q04DX003 (ip), vehicle: water.

For 14 compounds, T/C results are on record in PubChem BioAssay AID328 (DTP/NCI, 2004).

Values joined by “and” are separate entries in the source; they are usually repeats but may differ in a detail not shown here. Equal entries are not always repeated. Toxic doses and inconclusive results are not listed.

In the case of `COc1cccc(CC(=O)C(=O)O)c1`, the T/C under setting [1] is 95 % of control; the T/C under setting [2] is 100 % of control; the T/C under setting [3] is 104 % of control; the T/C under setting [4] was 115 % of control; the T/C under setting [5] is 90 % of control; the T/C under setting [6] was 110 % of control.

As for `CN1CC([N+](=O)[O-])C(=O)C([N+](=O)[O-])C1` (centres undefined), the T/C (dose: 50.0 mg/kg/injection, schedule: Q01DX005 (ip), vehicle: saline with Tween-80) is 92 % of control; the T/C (dose: 100.0 mg/kg/injection, schedule: Q01DX005 (ip), vehicle: saline with Tween-80) was 87 % of control; the T/C (dose: 200.0 mg/kg/injection, schedule: Q01DX005 (ip), vehicle: saline with Tween-80) is 103 % of control.

Regarding `CC(=O)N1CCc2nc3ccccc3cc21`, the T/C was 123 % of control (dose: 24.75 mg/kg/injection, schedule: Q01DX009 (ip), vehicle: Klucel (hydroxypropylcellulose) (HPC)); 105 % of control under setting [7]; 104 % of control and 105 % of control (dose: 37.5 mg/kg/injection, schedule: Q01DX009 (ip), vehicle: Klucel (hydroxypropylcellulose) (HPC)); 104 % of control and 110 % of control (dose: 56.25 mg/kg/injection, schedule: Q01DX009 (ip), vehicle: Klucel (hydroxypropylcellulose) (HPC)).

For `O=C(O)c1c(Cl)c(Cl)c(Cl)c(C(=O)O)c1Cl`, the T/C by setting is: under setting [1], 104 % of control; under setting [2], 109 % of control; under setting [3], 100 % of control; under setting [4], 95 % of control; under setting [6], 100 % of control.

For the compound `CCCCCCCC[N+](C)(CCCCCCCC)CCCCCCCC`, the T/C is 108 % of control (dose: 0.12 mg/kg/injection, schedule: Q01DX009 (ip), vehicle: saline); 116 % of control (dose: 0.18 mg/kg/injection, schedule: Q01DX009 (ip), vehicle: saline); 166 % of control (dose: 0.28 mg/kg/injection, schedule: Q01DX009 (ip), vehicle: saline); 95 % of control and 100 % of control (dose: 0.42 mg/kg/injection, schedule: Q01DX009 (ip), vehicle: saline); 155 % of control (dose: 0.43 mg/kg/injection, schedule: Q01DX009 (ip), vehicle: saline); 108 % of control and 121 % of control (dose: 0.96 mg/kg/injection, schedule: Q01DX009 (ip), vehicle: saline). The T/C by setting is: (dose: 1.0 mg/kg/injection, schedule: Q01DX009 (ip), vehicle: saline) 100 % of control; (dose: 1.3 mg/kg/injection, schedule: Q01DX009 (ip), vehicle: saline) 112 % of control; (dose: 2.0 mg/kg/injection, schedule: Q01DX009 (ip), vehicle: saline) 100 % of control; (dose: 2.1 mg/kg/injection, schedule: Q01DX009 (ip), vehicle: saline) 120 % of control; (dose: 2.32 mg/kg/injection, schedule: Q04DX003 (ip), vehicle: saline) 104 % of control; (dose: 3.1 mg/kg/injection, schedule: Q01DX009 (ip), vehicle: saline) 95 % of control. The T/C (dose: 4.65 mg/kg/injection, schedule: Q04DX003 (ip), vehicle: saline) is 95 % of control; the T/C (dose: 6.5 mg/kg/injection, schedule: Q01DX001 (ip), vehicle: saline) was 100 % of control; the T/C (dose: 13.0 mg/kg/injection, schedule: Q01DX001 (ip), vehicle: saline) was 100 % of control.

Regarding `Cc1c(O)c([N+](=O)[O-])cc2c1OCOC2`, the T/C runs as follows: under setting [3], 95 % of control; under setting [5], 104 % of control; under setting [8], 95 % of control.

With `O=C(O)CCc1cccnc1`, under “dose: 100.0 mg/kg/injection, schedule: Q01DX009 (ip), vehicle: saline with Tween-80”, the T/C was 104 % of control.

In the case of `CC[C@]1(O)CC(OC2CC(N(C)C)C(O)C(C)O2)c2c(cc3c(c2O)C(=O)c2c(O)cccc2C3=O)[C@@H]1C(=O)OC` (some centres undefined), the T/C is 104 % of control and 110 % of control (dose: 1.25 mg/kg/injection, schedule: Q01DX001 (ip), vehicle: saline); 100 % of control and 109 % of control (dose: 2.5 mg/kg/injection, schedule: Q01DX001 (ip), vehicle: saline); 100 % of control (dose: 5.0 mg/kg/injection, schedule: Q01DX001 (ip), vehicle: saline); 100 % of control (dose: 10.0 mg/kg/injection, schedule: Q01DX001 (ip), vehicle: saline).

Turning to `CCCCCCCC(=O)NN`, the T/C (dose: 3.12 mg/kg/injection, schedule: Q01DX009 (ip), vehicle: other) is 96 % of control; the T/C (dose: 6.25 mg/kg/injection, schedule: Q01DX009 (ip), vehicle: other) was 98 % of control; the T/C (dose: 12.5 mg/kg/injection, schedule: Q01DX009 (ip), vehicle: other) is 99 % of control; the T/C (dose: 25.0 mg/kg/injection, schedule: Q01DX009 (ip), vehicle: other) is 117 % of control; the T/C (dose: 50.0 mg/kg/injection, schedule: Q01DX009 (ip), vehicle: other) was 117 % of control; the T/C under setting [9] was 91 % of control. The T/C is 92 % of control (dose: 100.0 mg/kg/injection, schedule: Q01DX009 (ip), vehicle: other); 124 % of control under setting [10]; 97 % of control (dose: 200.0 mg/kg/injection, schedule: Q01DX009 (ip), vehicle: other).

Take `CC(=O)O[C@]1(C(C)=O)CC[C@H]2[C@@H]3C[C@H](C)C4=CC(=O)CC[C@]4(C)[C@H]3CC[C@@]21C`: the T/C under setting [1] is 103 % of control; the T/C under setting [3] is 111 % of control; the T/C (dose: 100.0 mg/kg/injection, schedule: Q04DX003 (ip), vehicle: other) is 110 % of control; the T/C under setting [5] was 94 % of control and 95 % of control; the T/C (dose: 200.0 mg/kg/injection, schedule: Q04DX003 (ip), vehicle: other) was 100 % of control; the T/C under setting [8] is 87 % of control. Moreover, for the setting “dose: 400.0 mg/kg/injection, schedule: Q04DX003 (ip), vehicle: other”, the T/C was 115 % of control.

As for `CCOC(=O)C(NC=O)C(=O)OCC`, the T/C runs as follows: (dose: 50.0 mg/kg/injection, schedule: Q01DX009 (ip), vehicle: saline) 105 % of control; (dose: 100.0 mg/kg/injection, schedule: Q01DX009 (ip), vehicle: saline) 94 % of control; (dose: 200.0 mg/kg/injection, schedule: Q01DX009 (ip), vehicle: saline) 93 % of control; (dose: 400.0 mg/kg/injection, schedule: Q01DX009 (ip), vehicle: saline) 93 % of control.

`C=CCNC(=O)c1ccccc1OCC(=O)O`: the T/C reads like this: (dose: 100.0 mg/kg/injection, schedule: Q01DX009 (ip), vehicle: gum acacia) 100 % of control; (dose: 100.0 mg/kg/injection, schedule: Q04DX003 (ip), vehicle: gum acacia) 100 % of control; (dose: 200.0 mg/kg/injection, schedule: Q01DX009 (ip), vehicle: gum acacia) 95 % of control; (dose: 200.0 mg/kg/injection, schedule: Q04DX003 (ip), vehicle: gum acacia) 91 % of control; (dose: 400.0 mg/kg/injection, schedule: Q01DX009 (ip), vehicle: gum acacia) 91 % of control; (dose: 400.0 mg/kg/injection, schedule: Q04DX003 (ip), vehicle: gum acacia) 108 % of control.

For the compound `C=CCOC(=O)c1ccco1`, the T/C (dose: 6.25 mg/kg/injection, schedule: Q01DX009 (ip), vehicle: Klucel (hydroxypropylcellulose) (HPC)) is 116 % of control; the T/C (dose: 12.5 mg/kg/injection, schedule: Q01DX009 (ip), vehicle: Klucel (hydroxypropylcellulose) (HPC)) was 108 % of control; the T/C under setting [7] was 108 % of control; the T/C under setting [1] is 100 % of control.

Take `O=C1CN(CCl)C(=O)CN1CCl`: the T/C was 100 % of control and 107 % of control (dose: 12.5 mg/kg/injection, schedule: Q04DX003 (ip), vehicle: water); 94 % of control (dose: 25.0 mg/kg/injection, schedule: Q01DX009 (ip), vehicle: water); 92 % of control and 103 % of control (dose: 25.0 mg/kg/injection, schedule: Q04DX003 (ip), vehicle: water); 92 % of control (dose: 50.0 mg/kg/injection, schedule: Q01DX009 (ip), vehicle: water); 95 % of control and 107 % of control under setting [9]; 100 % of control (dose: 100.0 mg/kg/injection, schedule: Q01DX009 (ip), vehicle: water). In addition, the T/C by setting is: under setting [10], 96 % of control; (dose: 200.0 mg/kg/injection, schedule: Q01DX009 (ip), vehicle: water) 94 % of control.
